Data published in ChEMBL document CHEMBL3132773, “Synthesis and biological evaluation of novel 2,3-dihydro-1H-1,5-benzodiazepin-2-ones; potential imaging agents of the metabotropic glutamate 2 receptor” (Medchemcomm, 2013).

Legend:
[1] = Lipophilicity, log P of the compound by HPLC analysis; type: physicochemical
[2] = target: Metabotropic glutamate receptor 2 (Homo sapiens, UniProt Q14416); assay: Non-competitive antagonist activity at human recombinant mGluR2 expressed in Chem-1 cell membrane assessed as inhibition of L-glutamate-induced [35S]GTPgammaS binding after 30 mins by liquid scintillation counting analysis; type: functional, cell membranes
[3] = target: Albumin (Homo sapiens, UniProt P02768); assay: Protein binding in human serum albumin by chromatography; type: ADME; details: read-out: PPB (converted)
Sequence of Albumin (P02768 whole entry): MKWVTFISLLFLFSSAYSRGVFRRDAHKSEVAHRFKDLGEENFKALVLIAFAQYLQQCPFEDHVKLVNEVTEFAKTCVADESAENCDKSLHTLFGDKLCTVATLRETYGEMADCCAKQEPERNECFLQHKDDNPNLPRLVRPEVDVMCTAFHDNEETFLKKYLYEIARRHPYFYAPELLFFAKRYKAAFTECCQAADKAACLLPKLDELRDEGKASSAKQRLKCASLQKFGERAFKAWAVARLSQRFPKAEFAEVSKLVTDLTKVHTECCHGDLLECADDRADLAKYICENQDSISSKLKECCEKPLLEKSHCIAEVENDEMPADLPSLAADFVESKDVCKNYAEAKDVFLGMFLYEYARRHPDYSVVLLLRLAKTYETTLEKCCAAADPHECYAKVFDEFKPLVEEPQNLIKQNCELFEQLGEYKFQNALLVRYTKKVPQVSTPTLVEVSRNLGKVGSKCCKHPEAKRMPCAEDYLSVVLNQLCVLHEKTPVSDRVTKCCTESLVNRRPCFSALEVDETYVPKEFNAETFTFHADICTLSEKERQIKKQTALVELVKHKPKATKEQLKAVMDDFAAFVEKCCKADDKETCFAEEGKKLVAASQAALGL

Sequence of Metabotropic glutamate receptor 2 (Q14416 whole entry): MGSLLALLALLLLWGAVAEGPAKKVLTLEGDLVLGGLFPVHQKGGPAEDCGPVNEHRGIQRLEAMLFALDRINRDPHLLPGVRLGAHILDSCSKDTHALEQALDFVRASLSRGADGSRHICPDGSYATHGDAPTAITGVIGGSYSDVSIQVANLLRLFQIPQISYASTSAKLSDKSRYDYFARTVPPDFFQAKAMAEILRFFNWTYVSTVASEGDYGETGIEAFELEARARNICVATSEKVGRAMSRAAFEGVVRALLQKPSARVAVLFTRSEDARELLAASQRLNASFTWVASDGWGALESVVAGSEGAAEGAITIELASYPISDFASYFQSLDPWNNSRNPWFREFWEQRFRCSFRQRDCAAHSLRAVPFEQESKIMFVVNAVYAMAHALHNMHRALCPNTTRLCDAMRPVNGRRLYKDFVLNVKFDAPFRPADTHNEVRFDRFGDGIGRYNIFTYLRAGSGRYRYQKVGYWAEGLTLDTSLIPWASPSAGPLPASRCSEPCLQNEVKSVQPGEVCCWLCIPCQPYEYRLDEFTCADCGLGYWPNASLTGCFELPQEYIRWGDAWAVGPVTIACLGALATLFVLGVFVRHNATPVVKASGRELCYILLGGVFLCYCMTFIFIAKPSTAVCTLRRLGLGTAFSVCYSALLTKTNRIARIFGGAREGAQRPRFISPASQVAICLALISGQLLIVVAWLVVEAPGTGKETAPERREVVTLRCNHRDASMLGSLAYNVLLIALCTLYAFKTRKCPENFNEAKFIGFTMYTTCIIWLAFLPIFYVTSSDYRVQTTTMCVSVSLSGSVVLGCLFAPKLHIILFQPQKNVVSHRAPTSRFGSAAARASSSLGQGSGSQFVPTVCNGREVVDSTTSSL

O=C1CC(c2cccc(-n3ccnc3)c2)=Nc2ccc(I)cc2N1
logP [1]: 4.6
IC50 [2]: 0.089 µM
fraction unbound [3]: 0.0508

Clc1cccc(Cl)c1/C(=C/n1cncn1)OC1CCCCCC1
IC50 [2]: 0.533 µM

COc1cc2c(cc1C(F)(F)F)NC(=O)CC(c1cccc(-n3ccnc3)c1)=N2
logP [1]: 4.67
IC50 [2]: 0.091 µM
fraction unbound [3]: 0.0759

COc1cc2c(cc1-c1ccc(I)cc1)NC(=O)CC(c1cccc(-n3ccnc3)c1)=N2
logP [1]: 5.72
IC50 [2]: 0.089 µM
fraction unbound [3]: 0.0168

O=C1CC(c2cccc(-n3ccnc3)c2)=Nc2cc(OCCCF)c(C(F)(F)F)cc2N1
logP [1]: 5.06
IC50 [2]: 0.1 µM
fraction unbound [3]: 0.0488

O=C1CC(c2cccc(-n3ccnc3)c2)=Nc2ccc(-c3ccc(I)cc3)cc2N1
logP [1]: 5.77
IC50 [2]: 0.133 µM
fraction unbound [3]: 0.0133

O=C1CC(c2cccc(-n3ccnc3)c2)=Nc2ccc(-c3cccc(I)c3)cc2N1
logP [1]: 5.73
IC50 [2]: 0.132 µM
fraction unbound [3]: 0.0154
